These results are taken from PubChem BioAssay (NCI).

Experiment in all cases: inhibition of tumour cell growth, NCI panel, 48 h
Assay [1] deals with A549 NSCLC.
For assay [2], the system named is CAKI-1 renal.
Assay [3] concerns HT29 colon.
For assay [4], the system named is KM12 colon.
The subject of assay [5] is MALME-3M melanoma.
Assay [6] relates to MCF7 breast.
Assay [7] relates to MDA-MB-231 breast.
The test system of assay [8] is PC-3 prostate.
Assay [9] relates to RXF 393 renal.
Assay [10] relates to SK-MEL-28 melanoma.
In assay [11] the test system is SN12C renal.
Assay [12] concerns U251 CNS.
The subject of assay [13] is UACC-62 melanoma.
For assay [14], the system named is UO-31 renal.

Several values for one entry are separate records, joined by “and”; a condition that tells them apart may be missing. Equal values may be shown once.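 Cultured in 96-well plates, cells were exposed to test compound for 48 hours across five concentrations. GI50: concentration for 50% inhibition of growth. Definition used: TGI = concentration required for complete inhibition of growth.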

Turning to `CC(=O)NC(c1nc2cc(C)c(C)cc2[nH]1)c1nc2cc(C)c(C)cc2[nH]1`, the TGI is 65.2 µM in [1]; 52.2 µM in assay [2]; 78.1 µM in assay [3]; 34.2 µM in assay [4]; 83.7 µM in assay [5]; more than 100 µM in assay [6]. Also, the TGI worked out at 76 µM in [7]; 94.7 µM in [8]; 84.8 µM in [9]; 53.4 µM in assay [10]; 77.4 µM in [11]; 57.9 µM in assay [12]. Besides, the TGI in assay [13] is more than 100 µM; in assay [14] it was 53.2 µM.

As to `NC(=O)CCC(N=C(N)c1csc(C2OC(CO)C(O)C2O)n1)C(=O)O` (centres undefined), the TGI in assay [1], in [2], in [3], in assay [4], in assay [5] and in assay [9] was more than 100 µM each time. Moreover, the TGI in assay [10], in [11], in [12] and in assay [13] was more than 100 µM each time.

With `COC1C=COC2(C)Oc3c(C)c(O)c4c(O)c(c(/C=N/N5CCN(N)CC5)c(O)c4c3C2=O)NC(=O)C(C)=CC=CC(C)C(O)C(C)C(O)C(C)C(OC(C)=O)C1C` (centres undefined), the TGI in [1], in assay [2], in assay [3], in assay [4], in assay [5] and in assay [9] was more than 100 µM throughout. Further, the TGI in assay [10], in assay [11], in assay [12], in assay [13] and in [14] was more than 100 µM in each case.

As to `O=S(=O)(O)c1ccc(N=Nc2c(O)ccc3cc(Br)ccc23)cc1`, the TGI in assay [1], in assay [2], in [3], in assay [4], in assay [5] and in assay [7] was more than 100 µM throughout. For the same compound, the TGI in [8], in assay [9], in assay [10], in [11], in assay [12] and in assay [13] was more than 100 µM in each case. Also, the TGI in [14] is more than 100 µM.

For the compound `COc1cccc(/C=N/[N-]C(N)=O)c1[O-].[Ni+2].[OH3+].c1ccc(-c2ccccn2)nc1`, the TGI in assay [1], in assay [2], in [3], in assay [4], in assay [5] and in assay [9] was more than 100 µM each time. Further, the TGI in assay [10], in assay [11], in assay [12], in assay [13] and in assay [14] was more than 100 µM throughout.

`COc1cc(OC)c(/C=C\c2cc(/C=C/c3c(OC)cc(OC)cc3OC)c3ccccc3[n+]2C)c(OC)c1`: the TGI was more than 41.7 µM in assay [1]; 5.93 µM in [3]; 10.4 µM in assay [4]; 4.52 µM in [5]; more than 39.8 µM in assay [6]; 10.2 µM in assay [7]. Further, the TGI was 11.5 µM in assay [8]; 10.9 µM in assay [9]; 10.9 µM in [10]; 9.8 µM in [11]; more than 61.4 µM in [12]; 16.5 µM in assay [13]. Further, in [14], the TGI is more than 55.4 µM.

`S=C1CC(c2ccccc2)Sc2ccccc2N1` (centres undefined): the TGI in assay [2], in assay [3], in assay [4], in [5], in [6] and in assay [7] was more than 100 µM in each case. Moreover, the TGI was more than 100 µM in [8]; 75.8 µM in assay [9]; more than 100 µM in assay [10]; more than 100 µM in assay [11]; more than 100 µM in [12]; more than 100 µM in assay [13]. This compound returned a TGI in assay [14] of more than 100 µM.

With `[O-][n+]1ccccc1S`, the TGI is 38.5 µM in [1]; 8.09 µM in assay [2]; 2.32 µM in [3]; 20.3 µM in assay [4]; 89.1 µM in assay [5]; more than 100 µM in assay [6]. Further, the TGI in [7] is more than 100 µM; in assay [8] it was more than 100 µM; in [9], 8.33 µM; in assay [10] it was more than 100 µM; in assay [11] it was more than 100 µM; in assay [12], more than 100 µM. The figures for the TGI in assay [13] and in assay [14] were 29.6 µM and more than 100 µM, respectively. Also, the GI50 in [6] is 1930 nM; in assay [7], 6.73 µM; in assay [8], 3.61 µM.

`CNC(=O)SCC(N)C(=O)O` (centres undefined): the TGI in assay [1], in assay [2], in [3], in [4], in [5] and in assay [6] was more than 100 µM in each case. For the same compound, the TGI in [9], in assay [10], in [11], in [12], in assay [13] and in assay [14] was more than 100 µM each time.

Turning to `CCC(=O)c1ccc2[nH]c3c(C)c4c(=O)cc(C)[nH]c4c(C)c3c2c1`, the TGI in [1], in assay [2], in [3], in assay [4], in assay [5] and in assay [6] was more than 100 µM in each case. Also, the TGI in assay [7], in assay [8], in [9], in [10], in assay [12] and in assay [14] was more than 100 µM in each case.

Regarding `OC1CCOc2ccccc21` (centres undefined), the TGI in assay [1], in [2], in assay [3], in assay [4], in assay [5] and in [9] was more than 100 µM each time. Further, the TGI in assay [10], in assay [11], in [12], in assay [13] and in assay [14] was more than 100 µM in each case.

Consider `CC(=O)NC(CCC(=O)C=[N+]=N)C(=O)O` (centres undefined), for which the TGI in assay [1], in [3], in assay [4], in assay [5], in assay [6] and in assay [7] was more than 100 µM throughout. In addition, the TGI in assay [8], in assay [9], in assay [10], in assay [11], in assay [12] and in [13] was more than 100 µM throughout. This compound showed a TGI in [14] of more than 100 µM.

`CC1(C)Cc2c(C#N)c(N)c3c(c2CO1)C(=O)OC3=O`: the TGI in [1], in assay [2], in [3], in [4], in assay [5] and in assay [9] was more than 100 µM in each case. The TGI in assay [10], in assay [11], in [12], in assay [13] and in assay [14] was more than 100 µM in each case.

As for `CC1CCC2(C(=O)O)CCC3(C)C(=CCC4C5(C)CCC(O)C(C)(C)C5CCC43C)C2C1C` (centres undefined), the GI50 in assay [1] is 10.1 µM and 26.4 µM. Further, the TGI in [1] is 21.4 µM and > 100 µM; in assay [2], 16.6 µM and 17.5 µM; in assay [3], 22.9 µM and 37.7 µM; in assay [4], 21 µM and 20.9 µM; in assay [5] it was 25.6 µM and 28.9 µM; in assay [6], 25.6 µM and 43.7 µM. Further, the TGI in assay [7] was 26.2 µM; in assay [8], 29.3 µM; in assay [9] it was 16.4 µM and 38.3 µM; in assay [11], 18.9 µM and 36.1 µM; in assay [12] it was 19.8 µM and > 100 µM; in [13], 18.8 µM and 44 µM. In addition, the TGI in assay [14] is 16.6 µM and 14.5 µM.

Take `C/C=C/C1=CC(=O)C(O)C1O` (centres undefined): the TGI came out at 107 µM in assay [1]; 43.7 µM in assay [2]; 102 µM in assay [3]; 39 µM in [4]; 87.4 µM in assay [5]; 122 µM in [6]. The TGI is 44 µM in [9]; 97.9 µM in assay [10]; 64 µM in assay [11]; 129 µM in [12]; 88.6 µM in assay [13]; 106 µM in assay [14].

Consider `C1=C(c2ccccc2)Nc2nnnn2C1c1ccccc1` (centres undefined), for which the TGI is more than 100 µM in [1]; more than 100 µM in [2]; 41.5 µM in assay [3]; 28.6 µM in assay [4]; 84.6 µM in [6]; more than 100 µM in [7]. Besides, the TGI in [8] is more than 100 µM; in [9] it was 51.1 µM; in assay [11], more than 100 µM; in assay [12], 52 µM; in [13], more than 100 µM; in [14], more than 100 µM.

In the case of `CCOC(=O)c1c(Cl)nc2ccccc2c1N=[N+]=[N-]`, the TGI in assay [1] is more than 100 µM; in assay [2], 43.4 µM; in assay [3], 34.2 µM; in [4] it was 31.5 µM; in assay [5], more than 100 µM; in assay [7] it was 30.1 µM. In addition, the TGI in assay [8] is 68.5 µM; in assay [9] it was more than 100 µM; in [10], more than 100 µM; in [11], 30.7 µM; in assay [12], 62.4 µM; in assay [14], 36.5 µM.

For `Cc1[nH]nc(N)c1C(N)=O`, the TGI is more than 100 µM in assay [1]; more than 100 µM in [2]; more than 100 µM in [3]; more than 100 µM in assay [4]; more than 100 µM in assay [5]; 56.1 µM in assay [9]. Moreover, the TGI in [10], in [11], in [13] and in assay [14] was more than 100 µM throughout.

`CC1CC[C@@]2(OC1)OC1CC3C4CCC5C[C@@H](OC6OC(CO)C(OC7OC(CO)C(O)C(OC8OC(CO)C(O)C(OC9OC(CO)C(O)C(O)C9O)C8O)C7OC7OC(CO)C(O)C(O)C7O)C(O)C6O)[C@H](O)C[C@]5(C)C4CC[C@]3(C)C1[C@@H]2C` (some centres undefined): the TGI in assay [1], in assay [2], in [3], in [4], in [5] and in [6] was more than 80.5 µM each time. The TGI in assay [7], in [8], in assay [9], in assay [10], in [11] and in assay [12] was more than 80.5 µM in each case. Besides, the TGI in assay [13] was more than 80.5 µM.

As to `CCCC(=O)NC1CCc2cc(OC)c(OC)c(OC)c2-c2ccc(OC)c(=O)cc21` (centres undefined), the TGI in assay [1] was more than 100 µM; in assay [3], 0.125 µM; in [5] it was more than 100 µM; in assay [6], more than 100 µM; in assay [8], more than 100 µM; in assay [9] it was 44.7 µM. Besides, the TGI in [10] was more than 100 µM; in assay [11], more than 100 µM; in assay [12], more than 100 µM; in assay [13], more than 100 µM; in assay [14], 75.9 µM. Besides, in assay [14], the GI50 is 138 nM.

As to `COC(=O)c1c(O)ccc2c1c1c(n2Cc2ccc(Cl)cc2Cl)C(=O)c2ccccc2C1=O`, the TGI was 19.3 µM in assay [1]; 27.2 µM in assay [2]; 32.1 µM in assay [3]; 15.9 µM in assay [4]; 34.2 µM in assay [5]; 15.9 µM in assay [6]. In addition, the TGI came to 23.5 µM in assay [7]; 21.3 µM in assay [8]; 19.7 µM in [9]; 30 µM in assay [10]; 5.62 µM in assay [11]; 24.6 µM in assay [12]. In assay [14], this compound showed a TGI of 22.8 µM.
